Results on 1 molecule are retold here after US20250000826A1, “APPLICATION OF BENZANILIDE COMPOUND IN TUMOR TREATMENT” (NANJING SHIJIANG MEDICINE TECHNOLOGY CO., LTD, priority 2021, published 2025).

Broadly, the IC50 is the concentration that gives 50% inhibition.

Format in all cases: cell-based
The test system of experiment [1] is SW48 (human colon adenocarcinoma cell). Briefly: CellTiter-Glo cell viability, SW48. To be noted: SW48, sensitive group, 3-4 days of culture, n=3, read-out: IC50 (μM), inhibitory effect on cell line. As for the experimental part: (§1) Cell viability was detected using the Promega CellTiter-Glo kit, cell viability was determined by directly measuring intracellular ATP content. In the experiment, the IC50 value of niclosamide on various tumor cell lines was determined. Each tumor cell was cultured separately in relevant medium (+p/s), and was incubated for 3 h, then the gradient diluted niclosamide was added. After 3-4 days of culture, the relevant IC50 (50% inhibiting concentration) was measured (n=3). The name, source and culture conditions of each tumor cell line were as follows: Cell line NCI-H82 (ATCC, No. HTB-175) was cultured in 10% fetal bovine serum-containing RPMI1640 medium (+P/S). Cell line SW48 (ATCC, No. CCL-231) was cultured in 10% fetal bovine serum-containing Leibovitz's L-15 medium (+P/S).

Experiment [2] has as its system GB-1 (human glioblastoma cell). Briefly: CellTiter-Glo cell viability, GB-1. To be noted: GB-1, insensitive group, 3-4 days of culture, n=3, read-out: IC50 (μM), inhibitory effect on cell line. As to the method:
as §1, with “GB-1 (JCRB,” for “SW48 (ATCC,”, “IF050489)” for “CCL-231)”, “[…] DMEM” for “Leibovitz's L-15”
(In general: ATP-based viability assays read luminescence as a measure of living cells.)

For another experiment, the system named is NCI-H82 (ov-NNMT) cell. Briefly: CellTiter-Glo cell viability, NNMT protein-overexpressing NCI-H82 cell. To be noted: Homo sapiens; NCI-H82 with NNMT gene inserted by viral vector, n=3. As for the experimental part: (§2) The NNMT protein-overexpressing NCI-H82 cell (NCI-H82 (ov-NNMT)) was obtained by inserting the NNMT gene into NCI-H82 cell using a viral vector. The control NCI-H82 cell (NCI-H82 (Con)) was obtained by transfecting NCI-H82 cell with empty virus vector without carrying NNMT gene. The IC50 value of niclosamide on control NCI-H82 cell (NCI-H82 (Con)) and NNMT protein-overexpressing NCI-H82 cell (NCI-H82 (ov-NNMT)) was determined using Promega CellTiter-Glo kit which detected cell viability by directly measuring intracellular ATP content (n=3), the experiment result was shown in Table 4 below: […]

Experiment [3] has as its system WSU-DLCL2 (human diffuse large B-cell lymphoma). Briefly: CellTiter-Glo cell viability, WSU-DLCL2. The note with it: WSUDLCL2, WSU-DLCL2, sensitive group, 3-4 days of culture, n=3, read-out: IC50 (μM), inhibitory effect on cell line. As for the experimental part: as §1, with “WSU-DLCL2 (DSMZ,” for “SW48 (ATCC,”, “ACC-575)” for “CCL-231)”, “RPMI1640” for “Leibovitz's L-15”

Experiment [4] concerns CFPAC-1 (human pancreatic cancer cell). The experiment can be described thus: CellTiter-Glo cell viability, CFPAC-1. The note with it: CFPAC-1, insensitive group, 3-4 days of culture, n=3, read-out: IC50 (μM), inhibitory effect on cell line. As to the method:
as §1, with “CFPAC-1” for “SW48”, “CRL-1918)” for “CCL-231)”, “IMDM” for “Leibovitz's L-15”

The test system of experiment [5] is SF-126 (human glioblastoma multiforme cell). Briefly: CellTiter-Glo cell viability, SF-126. The note with it: SF-126, insensitive group, 3-4 days of culture, n=3, read-out: IC50 (μM), inhibitory effect on cell line. As to the method:
as §1, with “SF126 (JCRB.” for “SW48 (ATCC,”, “1F050286)” for “CCL-231)”, “EMEM” for “Leibovitz's L-15”

For experiment [6], the system named is 786-0 (clear cell renal cell adenocarcinoma cell). The experiment can be described thus: CellTiter-Glo cell viability, 786-0. To be noted: Homo sapiens; 786-0, insensitive group, 3-4 days of culture, n=3; read-out: IC50 (μM), inhibitory effect on cell line. As for the experimental part:
as §1, with “786-0” for “SW48”, “CRL-1932)” for “CCL-231)”, “RPMI1640” for “Leibovitz's L-15”

A further experiment concerns NCI-H82 (Con) cell. Briefly: CellTiter-Glo cell viability, control NCI-H82 cell. To be noted: Homo sapiens; NCI-H82 transfected with empty virus vector, n=3. As for the experimental part: as §2
Experiment [7] relates to NCI-H82 (human small cell lung cancer cell). The experiment can be described thus: CellTiter-Glo cell viability, NCI-H82. The note with it: NCI-H82, sensitive group, 3-4 days of culture, n=3, read-out: IC50 (μM), inhibitory effect on cell line. As to the method: as §1, with “(+P/S).” for “(+P/S). Cell line SW48 (ATCC, No. CCL-231) was cultured in 10% fetal bovine serum-containing Leibovitz's L-15 medium (+P/S).”

The test system of experiment [8] is MDA-MB-453 (breast cancer cell). The experiment can be described thus: CellTiter-Glo cell viability, MDA-MB-453. To be noted: Homo sapiens; MDA-MB-453, sensitive group, 3-4 days of culture, n=3; read-out: IC50 (μM), inhibitory effect on cell line. As to the method: as §1, with “MDA-MB-453” for “SW48”, “HTB-131)” for “CCL-231)”
Experiment [9] deals with G-401 (human renal carcinoma Wilms cell). The experiment can be described thus: CellTiter-Glo cell viability, G-401. To be noted: G-401, sensitive group, 3-4 days of culture, n=3, read-out: IC50 (μM), inhibitory effect on cell line. As for the experimental part: as §1, with “G401” for “SW48”, “CRL-1441)” for “CCL-231)”, “McCoy's 5a” for “Leibovitz's L-15”

A value given as a limit tells only on which side of the number the result lay.

On to `O=C(Nc1ccc([N+](=O)[O-])cc1Cl)c1cc(Cl)ccc1O` [Niclosamide, niclosamide], for which the IC50 in [1] was 0.72 µM; in [2] it was 6.68 µM; with NCI-H82 (ov-NNMT) cell it was 420 nM; in experiment [3], 0.21 µM; in experiment [4], over 50 µM; in [5], 16.2 µM. The half-inhibitory concentration (IC50) was over 50 µM in experiment [6]; 120 nM in the experiment on NCI-H82 (Con) cell; 0.13 µM in experiment [7]; 0.47 µM in experiment [8]; 0.64 µM in experiment [9].
